System: CA4 CpG sites
Experiment: Bisulfite sequencing of CpG sites, cell lines treated vs. untreated
Format: cell-based, human
Parameters: unit not given here
Description: Samples: Paired tumor and adjacent normal tissues from twelve colorectal cancer patients were collected under institutional review board (IRB) approval with patient consent. Tissues were flash frozen in LN2 and stored at −80° C. prior to DNA extraction. All tissues were blinded. Cell lines: A panel of five colorectal cancer cell lines was used. Cells were grown to ˜50% confluence in the appropriate culture medium prior to treatment with 5-aza-2′-deoxycytidine. Optimal concentrations and incubation times (Table 4) were determined by assaying for reduction of p16 promoter methylation using MSP. Cells were harvested, pelleted by centrifugation, and washed twice in Hanks buffered saline solution. Cell pellets were stored at −80° C. Control cells were maintained simultaneously without 5-aza-2′-deoxycytidine treatment. DNA extraction: DNA was purified from tissues and cell lines using the QIAGEN DNeasy® Tissue Kit. Approximately 25-35 mg of each tissue was pulverized under liquid nitrogen before extraction. Elution volume for tissues was 2004. A final volume of […] of cell line DNA was extracted from 15 to 254 of each packed cell pellet (between 10^6-10^7 cells). Purified DNA was stored at −20° C. Bisulfite modification: Modification was performed according to the Frommer method (See Frommer M, et al., PNAS, 89: 1827-1831 (1992).) One μg genomic DNA was diluted into 50 μl with distilled H2O, 5.5 μl of 2M NaOH was added, and the mixture incubated at 37° C. for 10 minutes (to create single stranded DNA). Thirty μl of freshly prepared 10 mM hydroquinone (Sigma) was added to each tube. Five hundred twenty μl of freshly prepared 3M sodium bisulfite (Sigma S-8890), pH 5.0 was then added. Reagents were thoroughly mixed and then covered with mineral oil and incubated at 50° C. for 16 hours. After removing the oil, 1 ml of Wizard DNA Cleanup Resin (Promega A7280) was added to each tube prior to applying the mixture to miniprep column in the DNA Wizard Cleanup kit. The column was washed with 2 ml of 80% isopropanol, and eluted with 50 μl of heated water (60-70° C.). 5.5 μl of 3 M NaOH to was added to each tube, and incubated at room temperature for 5 minutes. Then 1 μl glycogen was added as carrier, 33 μl of 10 M NH4Ac, and 3 volumes of ethanol for DNA precipitation. The pellet was spun down and washed with 70% ethanol, dried and resuspended in 20 μl water. In some instances, the EZ DNA Methylation Kit (Zymo Research) which uses a simplified version of the Frommer method was used. In these cases, 1 μg of genomic DNA was denatured in 0.3M NaOH for 15 minutes at 37° C. followed by incubation at 50° C. for 16 hours in 0.5 mM hydroquinone and a saturated solution of sodium bisulfite at pH 5. Modified DNA was bound to the Zymo column membrane, then desulfonated with 0.3M NaOH for 15 minutes at room temperature. DNA was washed and resuspended with 50 μL 10 mM Tris-HCl-0.1 mM EDTA, pH 7.5 and stored at −20° C. The bisulfite reaction results in conversion of an unmethylated cytosine to uracil. Methylated cytosine remains unchanged after the bisulfite reaction. The resulting bisulfite modified DNA is single stranded. PCR amplification for sequencing: Primers were designed to amplify both methylated and unmethylated fragments of DNA (Table 5). Five μL of modified DNA ( 1/10 of modification reaction) was amplified first in a 254, reaction volume containing 10 mM Tris-HCl pH8.3, 50 mM KCl, 1.5 mM to 2 mM MgCl2, (Applied Biosystems), 0.25 mM each dNTP, 0.5 unit AmpliTaq (Applied Biosystems), and sequencing primers (each at 200 nM). Cycling conditions were 10 minutes at 95° C., 40 cycles of 30 seconds at 95° C., 30 seconds at 54-62° C., 30 seconds at 72° C., subsequently followed by extension for 5 minutes at 72° C.
Reaction products were purified either by the shrimp-alkaline phosphatase-Exol standard method or on the Qiagen Qiaquick PCR clean-up column and eluted in 30 μL 10 mM Tris-HCl, pH8.5. […]

For Nc1ncn([C@H]2C[C@H](O)[C@@H](CO)O2)c(=O)n1 [5-aza-2′-deoxycytidine], the “CA4 sequencing result (methylation) at CpG site #6” value (HT-29 treated) was 47, the “CA4 sequencing result (methylation) at CpG site #35” value (HT-29 treated) was 96 and the “CA4 sequencing result (methylation) at CpG site #43” value (HT-29 treated) was 77. For the same molecule, the “CA4 sequencing result (methylation) at CpG site #52” value (HT-29 treated) was 92, the “CA4 sequencing result (methylation) at CpG site #104” value (HT-29 treated) was 50 and the “CA4 sequencing result (methylation) at CpG site #120” value (HT-29 treated) was 67. The “CA4 sequencing result (methylation) at CpG site #127” value (HT-29 treated) was 74, the “CA4 sequencing result (methylation) at CpG site #129” value (HT-29 treated) was 87 and the “CA4 sequencing result (methylation) at CpG site #140” value (HT-29 treated) was 84. For the same molecule, the “CA4 sequencing result (methylation) at CpG site #153” value (HT-29 treated) was 83, the “CA4 sequencing result (methylation) at CpG site #156” value (HT-29 treated) was 72 and the “CA4 sequencing result (methylation) at CpG site #158” value (HT-29 treated) was 87. For the same molecule, the “CA4 sequencing result (methylation) at CpG site #164” value (HT-29 treated) was 87, the “CA4 sequencing result (methylation) at CpG site #181” value (HT-29 treated) was 73 and the “CA4 sequencing result (methylation) at CpG site #190” value (HT-29 treated) was 68. The “CA4 sequencing result (methylation) at CpG site #199” value (HT-29 treated) was 92, the “CA4 sequencing result (methylation) at CpG site #201” value (HT-29 treated) was 100 and the “CA4 sequencing result (methylation) at CpG site #204” value (HT-29 treated) was 94. For the same molecule, the “CA4 sequencing result (methylation) at CpG site #213” value (HT-29 treated) was 91, the “CA4 sequencing result (methylation) at CpG site #218” value (HT-29 treated) was 65 and the “CA4 sequencing result (methylation) at CpG site #220” value (HT-29 treated) was 79. The “CA4 sequencing result (methylation) at CpG site #227” value (HT-29 treated) was 47, the “CA4 sequencing result (methylation) at CpG site #6” value (LS123 treated) was 75 and the “CA4 sequencing result (methylation) at CpG site #35” value (LS123 treated) was 39. The “CA4 sequencing result (methylation) at CpG site #43” value (LS123 treated) was 62, the “CA4 sequencing result (methylation) at CpG site #52” value (LS123 treated) was 69 and the “CA4 sequencing result (methylation) at CpG site #104” value (LS123 treated) was 16. For the same molecule, the “CA4 sequencing result (methylation) at CpG site #120” value (LS123 treated) was 27, the “CA4 sequencing result (methylation) at CpG site #127” value (LS123 treated) was 70 and the “CA4 sequencing result (methylation) at CpG site #129” value (LS123 treated) was 46. The “CA4 sequencing result (methylation) at CpG site #140” value (LS123 treated) was 62, the “CA4 sequencing result (methylation) at CpG site #153” value (LS123 treated) was 43 and the “CA4 sequencing result (methylation) at CpG site #156” value (LS123 treated) was 40. For the same molecule, the “CA4 sequencing result (methylation) at CpG site #158” value (LS123 treated) was 22, the “CA4 sequencing result (methylation) at CpG site #164” value (LS123 treated) was 62 and the “CA4 sequencing result (methylation) at CpG site #181” value (LS123 treated) was 18. For the same molecule, the “CA4 sequencing result (methylation) at CpG site #190” value (LS123 treated) was 11, the “CA4 sequencing result (methylation) at CpG site #199” value (LS123 treated) was 17 and the “CA4 sequencing result (methylation) at CpG site #201” value (LS123 treated) was 33. For the same molecule, the “CA4 sequencing result (methylation) at CpG site #204” value (LS123 treated) was 20, the “CA4 sequencing result (methylation) at CpG site #213” value (LS123 treated) was 29 and the “CA4 sequencing result (methylation) at CpG site #218” value (LS123 treated) was 24. For the same molecule, the “CA4 sequencing result (methylation) at CpG site #220” value (LS123 treated) was 20, the “CA4 sequencing result (methylation) at CpG site #227” value (LS123 treated) was 11 and the “CA4 sequencing result (methylation) at CpG site #6” value (LS174T treated) was 93. For the same molecule, the “CA4 sequencing result (methylation) at CpG site #35” value (LS174T treated) was 35, the “CA4 sequencing result (methylation) at CpG site #43” value (LS174T treated) was 39 and the “CA4 sequencing result (methylation) at CpG site #52” value (LS174T treated) was 40. For the same molecule, the “CA4 sequencing result (methylation) at CpG site #104” value (LS174T treated) was 18, the “CA4 sequencing result (methylation) at CpG site #120” value (LS174T treated) was 22 and the “CA4 sequencing result (methylation) at CpG site #127” value (LS174T treated) was 19. For the same molecule, the “CA4 sequencing result (methylation) at CpG site #129” value (LS174T treated) was 62, the “CA4 sequencing result (methylation) at CpG site #140” value (LS174T treated) was 28 and the “CA4 sequencing result (methylation) at CpG site #153” value (LS174T treated) was 23. For the same molecule, the “CA4 sequencing result (methylation) at CpG site #156” value (LS174T treated) was 32, the “CA4 sequencing result (methylation) at CpG site #158” value (LS174T treated) was 10 and the “CA4 sequencing result (methylation) at CpG site #164” value (LS174T treated) was 41. The “CA4 sequencing result (methylation) at CpG site #181” value (LS174T treated) was 22, the “CA4 sequencing result (methylation) at CpG site #190” value (LS174T treated) was 61 and the “CA4 sequencing result (methylation) at CpG site #199” value (LS174T treated) was 10. The “CA4 sequencing result (methylation) at CpG site #201” value (LS174T treated) was 67, the “CA4 sequencing result (methylation) at CpG site #204” value (LS174T treated) was 3 and the “CA4 sequencing result (methylation) at CpG site #213” value (LS174T treated) was 56. For the same molecule, the “CA4 sequencing result (methylation) at CpG site #218” value (LS174T treated) was 64, the “CA4 sequencing result (methylation) at CpG site #220” value (LS174T treated) was 45 and the “CA4 sequencing result (methylation) at CpG site #227” value (LS174T treated) was 27. The “CA4 sequencing result (methylation) at CpG site #6” value (SW480 treated) was 70, the “CA4 sequencing result (methylation) at CpG site #35” value (SW480 treated) was 61 and the “CA4 sequencing result (methylation) at CpG site #43” value (SW480 treated) was 57. The “CA4 sequencing result (methylation) at CpG site #52” value (SW480 treated) was 73, the “CA4 sequencing result (methylation) at CpG site #104” value (SW480 treated) was 13 and the “CA4 sequencing result (methylation) at CpG site #120” value (SW480 treated) was 52. The “CA4 sequencing result (methylation) at CpG site #127” value (SW480 treated) was 44, the “CA4 sequencing result (methylation) at CpG site #129” value (SW480 treated) was 18 and the “CA4 sequencing result (methylation) at CpG site #140” value (SW480 treated) was 14. For the same molecule, the “CA4 sequencing result (methylation) at CpG site #153” value (SW480 treated) was 17, the “CA4 sequencing result (methylation) at CpG site #156” value (SW480 treated) was 53 and the “CA4 sequencing result (methylation) at CpG site #158” value (SW480 treated) was 7. For the same molecule, the “CA4 sequencing result (methylation) at CpG site #164” value (SW480 treated) was 66, the “CA4 sequencing result (methylation) at CpG site #181” value (SW480 treated) was 27 and the “CA4 sequencing result (methylation) at CpG site #190” value (SW480 treated) was 57. The “CA4 sequencing result (methylation) at CpG site #199” value (SW480 treated) was 28, the “CA4 sequencing result (methylation) at CpG site #201” value (SW480 treated) was 56 and the “CA4 sequencing result (methylation) at CpG site #204” value (SW480 treated) was 27. The “CA4 sequencing result (methylation) at CpG site #213” value (SW480 treated) was 51, the “CA4 sequencing result (methylation) at CpG site #218” value (SW480 treated) was 35 and the “CA4 sequencing result (methylation) at CpG site #220” value (SW480 treated) was 32. For the same molecule, the “CA4 sequencing result (methylation) at CpG site #227” value (SW480 treated) was 23, the “CA4 sequencing result (methylation) at CpG site #6” value (SW620 treated) was 64 and the “CA4 sequencing result (methylation) at CpG site #35” value (SW620 treated) was 89. For the same molecule, the “CA4 sequencing result (methylation) at CpG site #43” value (SW620 treated) was 81, the “CA4 sequencing result (methylation) at CpG site #52” value (SW620 treated) was 77 and the “CA4 sequencing result (methylation) at CpG site #104” value (SW620 treated) was 33. For the same molecule, the “CA4 sequencing result (methylation) at CpG site #120” value (SW620 treated) was 74, the “CA4 sequencing result (methylation) at CpG site #127” value (SW620 treated) was 67 and the “CA4 sequencing result (methylation) at CpG site #129” value (SW620 treated) was 80. For the same molecule, the “CA4 sequencing result (methylation) at CpG site #140” value (SW620 treated) was 78, the “CA4 sequencing result (methylation) at CpG site #153” value (SW620 treated) was 60 and the “CA4 sequencing result (methylation) at CpG site #156” value (SW620 treated) was 69. For the same molecule, the “CA4 sequencing result (methylation) at CpG site #158” value (SW620 treated) was 73, the “CA4 sequencing result (methylation) at CpG site #164” value (SW620 treated) was 92 and the “CA4 sequencing result (methylation) at CpG site #181” value (SW620 treated) was 43. For the same molecule, the “CA4 sequencing result (methylation) at CpG site #190” value (SW620 treated) was 46, the “CA4 sequencing result (methylation) at CpG site #199” value (SW620 treated) was 10 and the “CA4 sequencing result (methylation) at CpG site #201” value (SW620 treated) was 96. For the same molecule, the “CA4 sequencing result (methylation) at CpG site #204” value (SW620 treated) was 100, the “CA4 sequencing result (methylation) at CpG site #213” value (SW620 treated) was 96 and the “CA4 sequencing result (methylation) at CpG site #218” value (SW620 treated) was 91. For the same molecule, the “CA4 sequencing result (methylation) at CpG site #220” value (SW620 treated) was 93 and the “CA4 sequencing result (methylation) at CpG site #227” value (SW620 treated) was 37.
